Reference: patent US5585380A, “Modulation of cellular response to external stimuli” (priority 1995, dated 1996)

Key:
Assay type in all cases: in vivo, human
[1] = system: recipients of matched allogeneic donor marrow; assay: Matched allogeneic donor trial
Excerpt: (§1) They are given steroids to reduce inflammation. […] In this group of patients, GVHD approaches 90%.

[2] = system: patients undergoing allogeneic bone marrow transplant; assay: Preliminary study in allogeneic bone marrow transplant patients; conditions: first 30 days post-transplant; PTX/CIPRO N=10, GM-CSF N=27; all also PD and cyclosporin
Protocol: A preliminary study was conducted on patients undergoing allogeneic bone marrow transplant for multiple myeloma, for lymphoid malignancies, or for advanced stage CML or AML. Prednisone is often administered as an immunosuppressant in all experimental groups. In the study, these patients received the drugs for a minimum of 3 days to a maximum of 7 days prior to starting their preparative regimen while in the outpatient department according to the following regimen:
PTX: 600 mg p.o. qid at 9 am, 1 pm, 5 pm and 9 pm;
CIPRO: 500 mg p.o.b.i.d.; and
PD: 0.5 mg/kg b.i.d. (total 1 mg/kg/day changed to methylprednisolone at an equivalent dose starting on day -1).
For the duration of therapy, the patients are continued on the study drugs as follows:
PTX: until day +20 post-transplant then tapered 600 mg/day until off;
CIPRO: until day 30 post-transplant or day of discharge if sooner than day 30; and
PD: tapered starting on day 0 over 14 days until off.
All patients in these studies received PD and cyclosporin as GVHD prophylaxis. Granulocyte recovery was measured post-bone marrow transplant in patients receiving therapy with PTX, CIPRO in addition to standard PD administration (N=10), or GM-CSF (N=10), or PTX (N=4).

[3] = system: recipients of marrow from unrelated donors; assay: Unrelated donor trial
Excerpt: as §1

[4] = day on which ANC ≥ 100 cells/uL on two consecutive days
[5] = day on which ANC ≥ 1,000 cells/uL on two consecutive days
[6] = first day RBC count ≥ 30% for 7 consecutive days untransfused
[7] = first day platelet count ≥ 20,000/uL for 7 consecutive days untransfused
[8] = initial discharge from the hospital
[9] = maximum serum bilirubin days 0-28 post BMT
[10] = maximum serum creatinine day 0-28 post BMT

GM-CSF: granulocyte-macrophage colony-stimulating factor
ANC ≥ 100, mean ± standard deviation [1, 4]: 8 ± 6 days | ANC ≥ 100, median [1, 4]: 9.0 days | ANC ≥ 1,000, mean ± standard deviation [1, 5]: 16 ± 9 days | ANC ≥ 1,000, median [1, 5]: 14.0 days | Bili ≥ 5.0 mg/dL, patients ([1]; days 0-28 post BMT): 44% | Creat ≥ 2.0 mg/dL, patients ([1]; days 0-28 post BMT): 22% | ANC ≤ 100, mean ± standard deviation ([1]; days below 100 cells/uL): 6 ± 4 days | ANC ≤ 100, median ([1]; days below 100 cells/uL, GM-CSF 27, PTX/CIPRO 23 patients): 5.0 days | Last RBC day, mean ± standard deviation [1, 6]: 63 ± 39 days | Last RBC day, median [1, 6]: 59.0 days | Last plt day, mean ± standard deviation [1, 7]: 17 ± 11 days | Last plt day, median [1, 7]: 23.0 days | Day discharge, mean ± standard deviation [1, 8]: 26 ± 13 days | Day discharge, median [1, 8]: 24.0 days | Max Bili, mean ± standard deviation [1, 9]: 8 ± 10 mg/dL | Max Bili, median [1, 9]: 5.0 mg/dL | Max Creat, mean ± standard deviation [1, 10]: 1.8 ± 1.4 mg/dL | Max Creat, median [1, 10]: 1.5 mg/dL | Day 100 Survival ([1]; patients alive 100 days post transplant): 69% | Infection 0-28 ([1]; patients with positive bacterial blood cultures days 0-28 post BMT): 14% | Units platelets, mean ± standard deviation ([1]; platelets transfused day 0-28): 87 ± 74 units | Units platelets, median ([1]; platelets transfused day 0-28): 74.0 units | platelet transfusion requirement [2]: 87±69 units | red blood cell requirement [2]: 24.7±24 units | ANC ≤ 100, mean ± standard deviation [3]: 12 ± 7 days | ANC ≥ 100, mean ± standard deviation [3]: 18 ± 6 days | ANC ≥ 100, median [3]: 18.5 days | ANC ≥ 500, mean ± standard deviation [3]: 23 ± 4 days | ANC ≥ 500, median [3]: 22.5 days | ANC ≥ 1,000, mean ± standard deviation [3]: 26 ± 5 days | ANC ≥ 1,000, median [3]: 26.0 days | Bili ≥ 5.0 mg/dL, patients [3]: 46% | Day 100 Survival [3]: 86% | Day initial discharge, mean ± standard deviation [3]: 37 ± 14 days | Day initial discharge, median [3]: 37.0 days | GVHD Grade 0 [3]: 15% | GVHD Grade I [3]: 8% | GVHD Grade II [3]: 46% | GVHD Grade III [3]: 27% | GVHD Grade IV [3]: 4% | Infection 0-28 [3]: 7% | Last plt day, mean ± standard deviation [3]: 26 ± 6 days | Last plt day, median [3]: 24.5 days | Max Bili, mean ± standard deviation [3]: 7 ± 7 mg/dL | Max Bili, median [3]: 5.5 mg/dL | Max Creat, mean ± standard deviation [3]: 1.4 ± 1.2 mg/dL | Max Creat, median [3]: 1.1 mg/dL | Units platelets, mean ± standard deviation [3]: 90 ± 42 units | Units platelets, median [3]: 92.0 units | ANC ≤ 100, median ([3]; GM-CSF 30, PTX/CIPRO 17 patients): 12 days
